The text below walks through data of patent publication US11932642B1, “Substituted pyrido[3′,4′:4,5]pyrrolo[3,2-b][1,6]naphthyridines as CK2 inhibitors” (KING FAISAL UNIVERSITY, priority 2023, dated 2024).

The test system of one assay is PC3 (prostate). The assay can be described thus: In vitro cytotoxic activity (MTT) assay, PC3. The class given is cell-based. Conditions: Homo sapiens, Prostate cell; PC3 (prostate) cells, exposed for 96 hours; read-out: IC50, concentration of compound eliciting a 50% inhibition of cell proliferation. On the procedure:
(§1) Compounds 1-12 were screened for their in vitro cytotoxic activity utilizing a 3-(4,5-dimethyl-thiazol-2-yl)-2,5-diphenyltetrazolium bromide (MTT) assay against selected cancer human cell lines consisting of PC3 (prostate), HCT116 (colon), A375 (melanoma), H1299 (lung), MIAPaCa-2 (pancreas), HL60 (leukemia), MCF7 (breast), MDA-MB-231 (breast) (T. Mosmann, J. Immunol. Meth., 1983, 65, 55-63). The cells were cultured at 37° C. in RMPI1640 medium supplemented with 10% fetal bovine serum, 50 IU/mL penicillin, and 50 μg/mL streptomycin in a 5% CO2 incubator. All cells were sub-cultured 3 times/week by trypsinisation. Viable cells were seeded and allowed to adhere for 12 h before a test drug was added in 96-well plates at an initial density of 1.0×10^5 cells/mL. Tumour cell lines were separately exposed to various concentrations of the tested compounds followed by incubation at a temperature of 37° C. during 96 h inside a medium of fresh RMPI 1640. Cells were subsequently incubated at 37° C. using MTT at 0.5 mg/mL during 4 h. After removal of supernatant, formazan crystals were dissolved in isopropanol and the optical density was measured at 570 nm. CX-4945 was used as a positive control.

In a further assay the test system is HCT116 (colon). As to the kind of experiment: In vitro cytotoxic activity (MTT) assay, HCT116. The class given is cell-based. Particulars: Homo sapiens, HCT-116; HCT116 (colon) cells, exposed for 96 hours; read-out: IC50, concentration of compound eliciting a 50% inhibition of cell proliferation. On the procedure: as §1
For a further assay, the system named is A375 (melanoma). The assay can be described thus: In vitro cytotoxic activity (MTT) assay, A375. It counts as cell-based. Conditions: Homo sapiens, A-375; A375 (melanoma) cells, exposed for 96 hours; read-out: IC50, concentration of compound eliciting a 50% inhibition of cell proliferation. How it is done:
as §1

In another assay the test system is H1299 (lung). The assay can be described thus: In vitro cytotoxic activity (MTT) assay, H1299. The class given is cell-based. Conditions: Homo sapiens, NCI-H1299; H1299 (lung) cells, exposed for 96 hours; read-out: IC50, concentration of compound eliciting a 50% inhibition of cell proliferation. How it is done:
as §1

The test system of a further assay is MIAPaCa-2 (pancreas). As to the kind of experiment: In vitro cytotoxic activity (MTT) assay, MIAPaCa-2. It counts as cell-based. Conditions: Homo sapiens, MIA PaCa-2; MIAPaCa-2 (pancreas) cells, exposed for 96 hours; read-out: IC50, concentration of compound eliciting a 50% inhibition of cell proliferation. On the procedure: as §1
For another assay, the system named is HL60 (leukemia). The assay can be described thus: In vitro cytotoxic activity (MTT) assay, HL60. It counts as cell-based. Particulars: Homo sapiens, HL-60; HL60 (leukemia) cells, exposed for 96 hours; read-out: IC50, concentration of compound eliciting a 50% inhibition of cell proliferation. On the procedure:
as §1

A further assay deals with MCF7 (breast). As to the kind of experiment: In vitro cytotoxic activity (MTT) assay, MCF7. The class given is cell-based. Particulars: Homo sapiens; MCF7 (breast) cells, exposed for 96 hours; read-out: IC50, concentration of compound eliciting a 50% inhibition of cell proliferation. On the procedure: as §1
The test system of another assay is MDA-MB-231 (breast). As to the kind of experiment: In vitro cytotoxic activity (MTT) assay, MDA-MB-231. Particulars: Homo sapiens; MDA-MB-231 (breast) cells, exposed for 96 hours; read-out: IC50, concentration of compound eliciting a 50% inhibition of cell proliferation. It counts as cell-based. How it is done:
as §1

In assay [1] the target is T1, recombinant human CK2 (RRββ-holoenzyme) (Homo sapiens, UniProt P68400).
T1 construct: purchased Millipore
T1 sequence (P68400 whole entry): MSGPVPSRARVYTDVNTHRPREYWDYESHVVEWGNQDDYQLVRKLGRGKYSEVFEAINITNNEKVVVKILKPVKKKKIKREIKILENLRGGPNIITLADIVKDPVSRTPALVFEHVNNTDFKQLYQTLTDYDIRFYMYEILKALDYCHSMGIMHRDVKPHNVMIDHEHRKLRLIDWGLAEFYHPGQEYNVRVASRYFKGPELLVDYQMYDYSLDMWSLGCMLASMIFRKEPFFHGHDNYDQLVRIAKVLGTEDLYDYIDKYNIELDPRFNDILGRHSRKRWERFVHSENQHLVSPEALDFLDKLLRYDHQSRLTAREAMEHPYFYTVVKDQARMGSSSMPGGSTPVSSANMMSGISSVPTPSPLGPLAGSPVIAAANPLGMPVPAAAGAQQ
T1 sequence (P67870 whole entry partner): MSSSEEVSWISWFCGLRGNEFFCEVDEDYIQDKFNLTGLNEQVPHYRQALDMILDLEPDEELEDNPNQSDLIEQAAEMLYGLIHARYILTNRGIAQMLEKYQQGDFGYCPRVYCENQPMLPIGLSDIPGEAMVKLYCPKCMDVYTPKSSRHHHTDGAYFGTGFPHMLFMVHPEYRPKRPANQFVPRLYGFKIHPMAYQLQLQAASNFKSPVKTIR
As to the kind of experiment: CK2 Kinase Assay (radiometric, [γ-33P] ATP). The class given is biochemical. Conditions: final ATP concentration 15 μM, 10 min at 30° C.; read-out: protein kinase CK2 IC50. How it is done:
CK2 Kinase Assay was conducted using the protocol as described in Pierre F. et al; J. Med. Chem. 2011, 54, 635-654. The tested compounds in aqueous solution were added at a volume of 10 μL to a reaction mixture comprising 10 μL of assay dilution buffer (ADB; 20 mM MOPS, pH 7.2, 25 mM β-glycerol phosphate, 5 mM EGTA, 1 mM sodium orthovanadate, and 1 mM dithiothreitol), 10 μL of substrate peptide (RRRDDDSDDD, dissolved in ADB at a concentration of 1 mM), 10 μL of recombinant human CK2 (RRββ-holoenzyme, 25 ng dissolved in ADB; Millipore). Reactions were initiated by the addition of 10 μL of ATP solution (90% 75 mMMgCl2, 75 μM ATP (final ATP concentration: 15 μM) dissolved in ADB; 10% [γ-33P] ATP (stock 1 mCi/100 μL; 3000 Ci/mmol (Perkin-Elmer) and maintained for 10 min at 30° C. The reactions were quenched with 100 μL of 0.75% phosphoric acid and then transferred to and filtered through a phosphor cellulose filter plate (Millipore). After washing each well five times with 0.75% phosphoric acid, the plate was dried under vacuum for 5 min and, following the addition of 15 μL of scintillation fluid to each well, the residual radioactivity was measured using a Wallac […] counter. The IC50 values were derived from eight concentrations of test inhibitors.

Regarding `Clc1cccc(Nc2c3cnccc3nc3c2[nH]c2ccncc23)c1` [Compound (1), N-(3-chlorophenyl)-10H-pyrido[3′,4′:4,5]pyrrolo[3,2-b][1,6]naphthyridin-11-amine], the IC50 in the assay on PC3 (prostate) stood at 1700 nM; in the assay with HCT116 (colon) it was 1100 nM; with A375 (melanoma), 2800 nM; in the assay with H1299 (lung), 3200 nM; in the assay on MIAPaCa-2 (pancreas), 900 nM; in the assay with HL60 (leukemia), 2400 nM. Moreover, the IC50 came out at 7600 nM in the assay with MCF7 (breast), 5400 nM with MDA-MB-231 (breast) and 64 nM in assay [1].
